Experimental data reported in patent EP0641564A1, “OPTICALLY ACTIVE CONDENSED PYRAZOLE COMPOUND FOR USE IN TREATING THROMBOCYTOPENIA AND ERYTHROPENIA” (YOSHITOMI PHARMACEUTICAL INDUSTRIES, LTD., priority 1992, dated 1993).

Legend:
[1] = system: mice transplanted with bone marrow; assay: Promoting action on recovery of leukocyte count in mice transplanted with bone marrow; type: in vivo, ICR mice; conditions: for Leukocyte count: X-irradiation (8.0 Gy)+bone marrow transplantation (day 0, 7, 14); for Leukocyte count / Increase in leukocyte count: day 38; for Increase in leukocyte count: relative ratio of increased count to decreased count of bone marrow transplanted mice
Description: Experimental Example 8 : Promoting action on recovery of leukocyte count in mice transplanted with bone marrow
ICR mice (6-8 weeks old) were exposed to 8.0 Gy total body irradiation and 10⁷ bone marrow cells from the mice of the same species were transplanted to the mice. The bone marrow transplantation was performed three times on day 0, day 7 and day 14. Then, the compound of the present invention was intravenously administered for 14 consecutive days starting from the next day of the first bone marrow transplantation. On day 38 after the first bone marrow transplantation, blood was taken and leukocyte count was measured using an automatic cell counter. The experiment was done with 5 mice per group. The relative ratio of the increased leukocyte count to the decreased leukocyte count of the mice transplanted with bone marrow was calculated and expressed in percentage.

rats = assay: Acute toxicity test; type: in vivo; conditions: orally administered to rats, dose of 1000 mg/kg
Description: Experimental Example 9 : Acute toxicity test
Compound A, Compound B or Compound C was orally administered to rats. As a result, no death case was found at a dose of 1000 mg/kg.

[2] = system: mice administered with cyclophosphamide; assay: Stimulating action on recovery of leukocyte count (cyclophosphamide-treated mice); type: in vivo, ICR mice; conditions: for Leukocyte count: cyclophosphamide 200 mg/kg i.p., day 4; for Increase in leukocyte count: relative ratio to count of mice administered with cyclophosphamide (=100)
Description: Experimental Example 7 : Stimulating action on recovery of leukocyte count
ICR mice (20-25 g body weight) were intraperitoneally administered with 200 mg/kg of cyclophosphamide and the compound of the present invention was intravenously administered for 3 days starting from the next day of the administration. On day 4 after the cyclophosphamide administration, the blood of the ICR mice was taken and leukocyte count was measured using Coulter counter. The relative ratio of the count to the peripheral leukocyte count of the mice administered with cyclophosphamide was calculated and expressed in percentage.

[3] = system: mice transplanted with bone marrow; assay: Promoting action on recovery of platelet count in mice transplanted with bone marrow; type: in vivo, ICR mice; conditions: day 11; for Platelet count: X-irradiation (8.0 Gy)+bone marrow transplantation; for Increase in platelet count: difference between untreated group and bone marrow transplanted group = 100%
Source text: Experimental Example 1 : Promoting action on recovery of platelet count in mice transplanted with bone marrow
(§1) ICR mice (6-8 weeks old) were exposed to 8.0 Gy total body irradiation and 10⁷ bone marrow cells from the mice of the same species were transplanted to the mice. Then, Compound A or Compound B was intravenously administered for 9 consecutive days starting from the next day of the bone marrow transplantation. On day 11 after the bone marrow transplantation, heparinized blood was taken from the abdominal aorta of mice and platelet count was measured using an automatic cell counter. The experiment was done with 5 mice per group. The difference in platelet count between an untreated group and the bone marrow transplanted group was taken as 100%, based on which increase in the platelet count was calculated.

[4] = system: mice irradiated with X-rays; assay: Promoting action on recovery of erythrocyte count in mice irradiated with X-rays (preventive effects); type: in vivo, BALB/c mice; conditions: mean±SD
Description: Experimental Example 3 : Promoting action on recovery of erythrocyte count in mice irradiated with X-rays (preventive effects)
(§2) BALB/c mice (4-5 weeks old) were exposed to 4.0 Gy total body irradiation. Compound A was intravenously administered for 3 consecutive days starting from 3 days before and up to the previous day of the irradiation. On day 19 and day 22 after the X-ray irradiation, blood was taken from orbital vein plexus of mice and erythrocyte count was measured using an automatic cell counter. The experiment was done with 8 mice per group and the results are shown as mean value±standard deviation.

[5] = system: rats administered with anti-tumor drug; assay: Promoting action on recovery of decreased platelet count in rats administered with anti-tumor drug (nimustine hydrochloride); type: in vivo, SD rats; conditions: 1.0 mg/kg i.v. on day 8, 9, 10 and 14 after initial nimustine hydrochloride
Description: Experimental Example 2 : Promoting action on recovery of decreased platelet count in rats administered with anti-tumor drug
An anti-tumor drug, nimustine hydrochloride, (30 mg/kg) was intravenously administered to SD rats (6 weeks old) and 15 mg/kg thereof was intravenously administered the next day. Compound A was intravenously administered for 4 days on day 8, day 9, day 10 and day 14 after the initial administration of nimustine hydrochloride. On certain days after the administration, heparinized blood was taken from the rat tail vein and platelet count was measured using an automatic cell counter. The experiment was done with 4-6 rats per group.

[6] = system: mice transplanted with bone marrow; assay: Promoting action on recovery of erythrocyte count in mice transplanted with bone marrow; type: in vivo, ICR mice; conditions: X-irradiation (8.0 Gy)+bone marrow transplantation, day 11
Source text: Experimental Example 5 : Promoting action on recovery of erythrocyte count in mice transplanted with bone marrow
as §1, with “A” for “A or Compound B”, “erythrocyte” for “platelet”, “group.” for “group. The difference in platelet count between an untreated group and the bone marrow transplanted group was taken as 100%, based on which increase in the platelet count was calculated.”

[7] = system: mice irradiated with X-rays; assay: Promoting action on recovery of erythrocyte count in mice irradiated with X-rays (therapeutic effects); type: in vivo, BALB/c mice; conditions: day 14, mean±SD
Description: Experimental Example 4 : Promoting action on recovery of erythrocyte count in mice irradiated with X-rays (therapeutic effects)
as §2, with “for 9” for “for 3”, “from” for “from 3 days before and up to”, “the next” for “the previous”, “the X-ray irradiation to 9 days thereafter.” for “the irradiation.”, “day 14” for “day 19 and day 22”, “with 6” for “with 8”

[8] = 0.01 mg/kg i.v. for 14 consecutive days
[9] = 0.1 mg/kg i.v. for 14 consecutive days
[10] = 0.01 mg/kg i.v. for 3 consecutive days before 4.0 Gy irradiation
[11] = 0.1 mg/kg i.v. for 3 consecutive days before 4.0 Gy irradiation
[12] = 1 mg/kg i.v. for 3 consecutive days before 4.0 Gy irradiation

For `C[C@@H](CN(C)C)Oc1ccc(-c2nn(CC(=O)O)c3ncccc23)cc1` [Comp. B, (S)-3-[4-(2-dimethylamino-1-methylethoxy)phenyl]-1H-pyrazolo[3,4-b]pyridine-1-acetic acid], the Leukocyte count [1, 8] was 76±10 10²/mm³, the “Increase in leukocyte count” value ([1]; 0.01 mg/kg i.v.) was 48% and the Leukocyte count [1, 9] was 89±6 10²/mm³. For the same compound, the “Increase in leukocyte count” value ([1]; 0.1 mg/kg i.v.) was 69%, the “strength of leukocyte count recovery effect relative to Compound A” value ([1]; bone marrow transplanted mice, comparison from Table 8) was “about ten times stronger effect” and the “death cases (acute toxicity)” value (rats) was “no death case”. For the same compound, the Leukocyte count ([2]; 0.003 mg/kg i.v. for 3 days) was 19±5 10²/mm³, the “Increase in leukocyte count” value ([2]; 0.003 mg/kg i.v.) was 173% and the Leukocyte count ([2]; 0.03 mg/kg i.v. for 3 days) was 27±5 10²/mm³. The “Increase in leukocyte count” value ([2]; 0.03 mg/kg i.v.) was 245%, the Leukocyte count ([2]; 0.3 mg/kg i.v. for 3 days) was 30±6 10²/mm³ and the “Increase in leukocyte count” value ([2]; 0.3 mg/kg i.v.) was 273%. For the same compound, the “strength of leukocyte count recovery effect relative to Compound A” value ([2]; cyclophosphamide-pretreated mice, comparison from Table 7) was “about three times stronger effect”, the Platelet count ([3]; Table 2, 0.01 mg/kg i.v. for 9 consecutive days) was 45.9±6.7 10⁴/mm³ and the “Increase in platelet count” value ([3]; Table 2, 0.01 mg/kg i.v.) was 65%. For the same compound, the Platelet count ([3]; Table 2, 0.03 mg/kg i.v. for 9 consecutive days) was 54.8±13.6 10⁴/mm³ and the “Increase in platelet count” value ([3]; Table 2, 0.03 mg/kg i.v.) was 81%.
For `CC(CN(C)C)Oc1ccc(-c2nn(CC(=O)O)c3ncccc23)cc1` (stereo not drawn) [Comp. A, 3-[4-(2-dimethylamino-1-methylethoxy)phenyl]-1H-pyrazolo[3,4-b]pyridine-1-acetic acid], the “Erythrocyte count day 19” value [4, 10] was 835±102 10⁴/mm³, the “Erythrocyte count day 22” value [4, 10] was 904±45 10⁴/mm³ and the “Erythrocyte count day 19” value [4, 11] was 837±118 10⁴/mm³. The “Erythrocyte count day 22” value [4, 11] was 916±86 10⁴/mm³, the “Erythrocyte count day 19” value [4, 12] was 856±118 10⁴/mm³ and the “Erythrocyte count day 22” value [4, 12] was 932±86 10⁴/mm³. The Leukocyte count [1, 8] was 65±7 10²/mm³, the “Increase in leukocyte count” value ([1]; 0.01 mg/kg i.v.) was 30% and the Leukocyte count [1, 9] was 75±5 10²/mm³. For the same compound, the “Increase in leukocyte count” value ([1]; 0.1 mg/kg i.v.) was 46%, the Leukocyte count ([1]; 1 mg/kg i.v. for 14 consecutive days) was 81±4 10²/mm³ and the “Increase in leukocyte count” value ([1]; 1 mg/kg i.v.) was 56%. The “death cases (acute toxicity)” value (rats) was “no death case”, the “Platelet count day 25” value ([5]; day 25) was 17.7±21.8 10⁴/mm³ and the “Platelet count day 44” value ([5]; day 44) was 57.3±20.2 10⁴/mm³. For the same compound, the Leukocyte count ([2]; 0.01 mg/kg i.v. for 3 days) was 18±8 10²/mm³, the “Increase in leukocyte count” value ([2]; 0.01 mg/kg i.v.) was 164% and the Leukocyte count ([2]; 0.1 mg/kg i.v. for 3 days) was 25±6 10²/mm³. For the same compound, the “Increase in leukocyte count” value ([2]; 0.1 mg/kg i.v.) was 227%, the Leukocyte count ([2]; 1 mg/kg i.v. for 3 days) was 30±6 10²/mm³ and the “Increase in leukocyte count” value ([2]; 1 mg/kg i.v.) was 273%. The Erythrocyte count ([6]; 0.01 mg/kg i.v. for 9 consecutive days) was 699±51 10⁴/mm³, the Erythrocyte count ([6]; 0.1 mg/kg i.v. for 9 consecutive days) was 714±56 10⁴/mm³ and the Platelet count ([3]; Table 1, 0.01 mg/kg i.v. for 9 consecutive days) was 27.4±9.6 10⁴/mm³. For the same compound, the “Increase in platelet count” value ([3]; Table 1, 0.01 mg/kg i.v.) was 30%, the Platelet count ([3]; Table 1, 0.03 mg/kg i.v. for 9 consecutive days) was 31.4±11.4 10⁴/mm³ and the “Increase in platelet count” value ([3]; Table 1, 0.03 mg/kg i.v.) was 41%. For the same compound, the Platelet count ([3]; Table 1, 0.1 mg/kg i.v. for 9 consecutive days) was 42.3±10.6 10⁴/mm³, the “Increase in platelet count” value ([3]; Table 1, 0.1 mg/kg i.v.) was 71% and the Platelet count ([3]; Table 1, 0.3 mg/kg i.v. for 9 consecutive days) was 49.8±9.7 10⁴/mm³. The “Increase in platelet count” value ([3]; Table 1, 0.3 mg/kg i.v.) was 91%, the Erythrocyte count ([7]; 0.01 mg/kg i.v. for 9 consecutive days after 4.0 Gy irradiation) was 535±98 10⁴/mm³ and the Erythrocyte count ([7]; 0.1 mg/kg i.v. for 9 consecutive days after 4.0 Gy irradiation) was 686±72 10⁴/mm³.
With `CCOC(=O)Cn1nc(-c2ccc(O[C@@H](C)CN(C)C)cc2)c2cccnc21.Cl` [Compound C, ethyl (S)-3-[4-(2-dimethylamino-1-methylethoxy)phenyl]-1H-pyrazolo[3,4-b]pyridine-1-acetate hydrochloride] the “death cases (acute toxicity)” value (rats) was “no death case”.
